Consider 29 molecules from patent US20240101531A1, “PYRIDINAMINE DERIVATIVES AND THEIR USE AS POTASSIUM CHANNEL MODULATORS” (Xenon Pharmaceuticals Inc., priority 2022, published 2024).

Molecules are shown by their SMILES. Where a name gives a salt, the structure may show the parent alone.

The experiment addresses human KV7.2/KV7.3 (Homo sapiens (Human), UniProt O43525+O43526). Nature of the experiment: Potassium flux assay (IPG-2 AM dye). Type of experiment: cell-based. Conditions: TREX HEK 293 or HEK 293 cells expressing human KV7.2/KV7.3; arithmetic mean values. Summed up:
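HEK 293 or TREX HEK 293 cells stably expressing human KV7.2/KV7.3 (tetracycline-induced where needed), loaded with IPG-2 AM, then compound for 20 min at room temperature. Flux triggered by K challenge buffer (10 mM KCl, pH 7.4), read at 530/558 nm; EC50 from 16-point 2-fold series from 30 μM, normalised to DMSO and reference modulator.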

By EC50 is commonly meant the concentration needed to bring the measured effect to its halfway point. On to `Clc1ccc(Nc2nccc3cc(OC[C@H]4CCN(Cc5ccccc5)C4)ccc23)cn1` [Example 284, (S)-6-((1-benzylpyrrolidin-3-yl)methoxy)-N-(6-chloropyridin-3-yl)isoquinolin-1-amine], for which the EC50 is 1 to 10 µM.
In the case of `Clc1ccc(Nc2nccc3cc(OCc4cnn5c4CCCC5)ccc23)cn1` [Example 285], the EC50 was in the range of 1 to 10 µM.
As to `CS(=O)(=O)C1(COc2ccc3c(Nc4ccc(Cl)nc4)nccc3c2)CC1` [Example 286, N-(6-chloropyridin-3-yl)-6-((1-(methylsulfonyl)cyclopropyl)methoxy)isoquinolin-1-amine], the EC50 fell in the range of 1 to 10 µM.
For `CS(=O)(=O)C1(COc2ccc3c(Nc4ccc(Cl)nc4)nccc3c2)CCC1` [Example 287, N-(6-chloropyridin-3-yl)-6-((1-(methylsulfonyl)cyclobutyl)methoxy)isoquinolin-1-amine], the EC50 is 1 to 10 µM.
For `COC1(COc2ccc3c(Nc4ccc(Cl)nc4)nccc3c2)CCC1` [Example 288, N-(6-chloropyridin-3-yl)-6-((1-methoxycyclobutyl)methoxy)isoquinolin-1-amine], the EC50 is below 1 µM.
For `Clc1ccc(Nc2nccc3cc(OCc4cnn(C5CC5)c4)ccc23)cn1` [Example 289, N-(6-chloropyridin-3-yl)-6-((1-cyclopropyl-1H-pyrazol-4-yl)methoxy)isoquinolin-1-amine] the value was 1 to 10 µM.
Then `Clc1ccc(Nc2nccc3cc(OC4CCC45COC5)ccc23)cn1` (centres unmarked) [Example 290, 6-((2-oxaspiro[3.3]heptan-5-yl)oxy)-N-(6-chloropyridin-3-yl)isoquinolin-1-amine], with below 1 µM.
For `Cn1ncc(COc2ccc3c(Nc4ccc(Cl)nc4)nccc3c2)c1Cl` [Example 291, 6-((5-chloro-1-methyl-1H-pyrazol-4-yl)methoxy)-N-(6-chloropyridin-3-yl)isoquinolin-1-amine] the value was 1 to 10 µM; for `Cn1cc(COc2ccc3c(Nc4ccc(Cl)nc4)nccc3c2)c(Cl)n1` [Example 292, 6-((3-chloro-1-methyl-1H-pyrazol-4-yl)methoxy)-N-(6-chloropyridin-3-yl)isoquinolin-1-amine], below 1 µM; for `CC1(COc2ccc3c(Nc4ccc(Cl)nc4)nccc3c2)CS(=O)(=O)C1` [Example 293, 3-(((1-((6-chloropyridin-3-yl)amino)isoquinolin-6-yl)oxy)methyl)-3-methylthietane 1,1-dioxide], below 1 µM.
On to `NS(=O)(=O)C1(COc2ccc3c(Nc4ccc(Cl)nc4)nccc3c2)CCC1` [Example 294, 1-(((1-((6-chloropyridin-3-yl)amino)isoquinolin-6-yl)oxy)methyl)cyclobutane-1-sulfonamide], for which the EC50 is below 1 µM.
Then `Clc1ccc(Nc2nccc3cc(OCc4cnn(Cc5ccccc5)c4)ccc23)cn1` [Example 295, 6-((1-benzyl-1H-pyrazol-4-yl)methoxy)-N-(6-chloropyridin-3-yl)isoquinolin-1-amine], with 1 to 10 µM; and `CC(Cc1cnn(C)c1)Oc1ccc2c(Nc3ccc(Cl)nc3)nccc2c1` (centres unmarked) [Example 296, N-(6-chloropyridin-3-yl)-6-((1-(1-methyl-1H-pyrazol-4-yl)propan-2-yl)oxy)isoquinolin-1-amine], with 1 to 10 µM; and `Clc1ccc(Nc2nccc3cc(O[C@@H]4CCOC4)ccc23)cn1` [Example 297, (R)-N-(6-chloropyridin-3-yl)-6-((tetrahydrofuran-3-yl)oxy)isoquinolin-1-amine trifluoroacetate], with below 1 µM.
For `Clc1ccc(Nc2nccc3cc(O[C@H]4CCOC4)ccc23)cn1` [Example 298, (S)-N-(6-chloropyridin-3-yl)-6-((tetrahydrofuran-3-yl)oxy)isoquinolin-1-amine trifluoroacetate] the value was 1 to 10 µM; for `CC1(C)OCC(COc2ccc3c(Nc4ccc(Cl)nc4)nccc3c2)O1` (centres unmarked) [Example 299, N-(6-chloropyridin-3-yl)-6-((2,2-dimethyl-1,3-dioxolan-4-yl)methoxy)isoquinolin-1-amine], below 1 µM; for `O=S1(=O)CC(COc2ccc3c(Nc4ccc(Cl)nc4)nccc3c2)C1` [Example 300, 3-(((1-((6-chloropyridin-3-yl)amino)isoquinolin-6-yl)oxy)methyl)thietane 1,1-dioxide], below 1 µM.
For `Clc1ccc(Nc2nccc3cc(OCc4cnsc4)ccc23)cn1` [Example 301, N-(6-chloropyridin-3-yl)-6-(isothiazol-4-ylmethoxy)isoquinolin-1-amine], the EC50 is below 1 µM.
Regarding `C[C@]1(COc2ccc3c(Nc4ccc(Cl)nc4)nccc3c2)CCCO1` [Example 302, (R)—N-(6-chloropyridin-3-yl)-6-((2-methyltetrahydrofuran-2-yl)methoxy)isoquinolin-1-amine], the EC50 lay within 1 to 10 µM.
For `C[C@@]1(COc2ccc3c(Nc4ccc(Cl)nc4)nccc3c2)CCCO1` [Example 303, (S)—N-(6-chloropyridin-3-yl)-6-((2-methyltetrahydrofuran-2-yl)methoxy)isoquinolin-1-amine] the value was 1 to 10 µM.
Then `Clc1ccc(Nc2nccc3cc(COc4cn[nH]c4)ccc23)cn1` [Example 304, 6-(((1H-pyrazol-4-yl)oxy)methyl)-N-(6-chloropyridin-3-yl)isoquinolin-1-amine], with 1 to 10 µM.
As for `COCC1(COc2ccc3c(Nc4ccc(Cl)nc4)nccc3c2)COC1` [Example 306, N-(6-chloropyridin-3-yl)-6-((3-(methoxymethyl)oxetan-3-yl)methoxy)isoquinolin-1-amine], the 50% effective concentration (EC50) is below 1 µM.
Consider `Cn1cnc(COc2ccc3c(Nc4ccc(Cl)nc4)nccc3c2)n1` [Example 307, N-(6-chloropyridin-3-yl)-6-((1-methyl-1H-1,2,4-triazol-3-yl)methoxy)isoquinolin-1-amine], for which the EC50 fell in the range of 1 to 10 µM.
Then `Cc1ncc(Nc2nccc3cc(OCc4cncnc4)ccc23)cn1` [Example 308, N-(2-methylpyrimidin-5-yl)-6-(pyrimidin-5-ylmethoxy)isoquinolin-1-amine], with 1 to 10 µM; and `CC(=O)N1CC(COc2ccc3c(Nc4ccc(Cl)nc4)nccc3c2)C1` [Example 309, 1-(3-(((1-((6-chloropyridin-3-yl)amino)isoquinolin-6-yl)oxy)methyl)azetidin-1-yl)ethan-1-one], with 1 to 10 µM.
Then `FC(F)(F)CN1CC(COc2ccc3c(Nc4ccc(Cl)nc4)nccc3c2)C1` [Example 310, N-(6-chloropyridin-3-yl)-6-((1-(2,2,2-trifluoroethyl)azetidin-3-yl)methoxy)isoquinolin-1-amine], with 1 to 10 µM.
Turning to `Cn1cc(Oc2ccc3c(Nc4ccc(Cl)nc4)nccc3c2)cn1` [Example 311, N-(6-chloropyridin-3-yl)-6-((1-methyl-1H-pyrazol-4-yl)oxy)isoquinolin-1-amine], the EC50 is 1 to 10 µM.
For `CC(=O)N1CCC(Oc2ccc3c(Nc4ccc(Cl)nc4)nccc3c2)CC1` [Example 312, 1-(4-((1-((6-chloropyridin-3-yl)amino)isoquinolin-6-yl)oxy)piperidin-1-yl)ethan-1-one], the EC50 was in the range of 1 to 10 µM.
Then `Clc1ccc(Nc2nccc3cc(OC4CCN(C5COC5)CC4)ccc23)cn1` [Example 313, N-(6-chloropyridin-3-yl)-6-((1-(oxetan-3-yl)piperidin-4-yl)oxy)isoquinolin-1-amine], with 1 to 10 µM.
